According to PubChem BioAssay AID1933 (Broad Institute, 2009):
Records with an inconclusive call do not appear. Calls of active or inactive are those of the source. The rule behind the calls is not given here.

Tested on: BJ-TERT fibroblast viability, ATP luminescence
Experiment: BJ-TERT fibroblast viability loss – cell-based, RAS-independent, luminescence, dose response (AID 1933)

Row | Structure (SMILES) | EC50
1 | COc1cc2c(c(OC)c1OC)-c1ccc(O)c(=O)cc1C(NC(C)=O)CC2 (configuration not stated) | < 0.12 µM
2 | CCSc1nc2ccccc2n1C(=O)/C=C/c1ccc(OC)c(OC)c1 | > 15 µM (inactive)
